Experiments:
[1] = target: T1, CCR-3 receptor (Homo sapiens, UniProt P51677); assay: CCR-3 receptor binding assay, inhibition of 125I eotaxin binding to CCR-3 L1.2 transfectant cells; settings: inhibition of 125I-eotaxin binding to CCR-3 L1.2 transfected cells, 1 hour at rt
T1 construct: expressed in transfected cells; host or cells: L1.2 (murine pre-beta lymphoma line) transfected with CCR-3
T1 sequence (P51677 1-355): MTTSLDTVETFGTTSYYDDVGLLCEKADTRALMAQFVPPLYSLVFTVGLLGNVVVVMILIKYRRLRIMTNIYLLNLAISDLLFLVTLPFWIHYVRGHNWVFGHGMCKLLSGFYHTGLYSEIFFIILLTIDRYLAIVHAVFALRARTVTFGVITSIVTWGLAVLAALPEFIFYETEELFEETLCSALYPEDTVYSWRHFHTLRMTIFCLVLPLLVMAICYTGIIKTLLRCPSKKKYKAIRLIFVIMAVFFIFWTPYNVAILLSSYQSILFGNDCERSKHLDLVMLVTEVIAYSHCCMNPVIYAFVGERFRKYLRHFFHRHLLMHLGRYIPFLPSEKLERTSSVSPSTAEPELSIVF
Procedure: CCR-3 Receptor Binding Assay—In Vitro
The CCR-3 antagonistic activity of the compounds of the invention was determined by their ability to inhibit the binding of ^125I eotaxin to CCR-3 L1.2 transfectant cells (see Ponath, P. D. et al., J. Exp. Med., 183:2437–48, (1996)).
The assay was performed in Costar 96-well polypropylene round bottom plates. Test compounds were dissolved in DMSO and then diluted with binding buffer (50 mM HEPES, 1 mM CaCl2, 5 mM MgCl2, 0.5% bovine serum albumin (BSA), 0.02% sodium azide, pH 7.24) such that the final DMSO concentration was 2%. 25 μl of the test solution or only buffer with DMSO (control samples) was added to each well, followed by the addition of 25 μl of ^125I-eotaxin ([…]) (NEX314, New England Nuclear, Boston, Mass.) and 1.5×10^5 of the CCR-3 L1.2 transfected cells in 25 μl binding buffer. The final reaction volume was 75 μl.
After incubating the reaction mixture for 1 hour at rt, the reaction was terminated by filtering the reaction mixture through a polyethylenimine-treated Packard Unifilter GF/C filter plate (Packard, Chicago, Ill.). The filters were washed four times with ice cold wash buffer containing 10 mm HEPES and 0.5 M sodium chloride (pH 7.2) and dried at 65° C. for approximately 10 minutes. 25 μl/well of Microscint-20® scintillation fluid (Packard) was added and the radioactivity retained on the filters was determined by using the Packard TopCount®
Compounds of this invention were active in this assay.

Row | IC50 [1] | melting point | SMILES
1 | 0.965 µM |  | Cc1c(CN2C3CCC2CC(Cc2ccc(Cl)c(Cl)c2)C3)c(=O)n(-c2ccccc2)n1C (stereo not shown) [Example 6, 4-[3-(3,4-dichloro-benzyl)-8-aza-bicyclo[3.2.1]oct-8-ylmethyl]-1,5-dimethyl-2-phenyl-1,2-dihydro-pyrazol-3-one]
2 | 0.0082 µM | 118 to 123 °C | COc1cc(NC(=O)N[C@@H](CN2C3CCC2CC(Cc2ccc(Cl)cc2)C3)[C@@H](C)O)cc(OC)c1OC (stereo partly shown) [Example 7]
3 | 0.331 µM |  | Cc1c(CN2CC3CCC2CC3Cc2ccc(Cl)c(Cl)c2)c(=O)n(-c2ccccc2)n1C (stereo not shown) [Example 2, 4-[5-(3,4-Dichloro-benzyl)-2-aza-bicyclo[2.2.2]oct-2-ylmethyl]-1,5-dimethyl-2-phenyl-1,2-dihydro-pyrazol-3-one]

Source: patent publication US7081531B2, “Bridged bicyclic amine derivatives useful as CCR-3 receptor antagonists” (Roche Palo Alto LLC, priority 2003, dated 2006)
